Laboratory results: patent US11413242B2, “Formulations of Tie-2 activators and methods of use thereof” (EyePoint Pharmaceuticals, Inc., priority 2019, dated 2022)

Assays:
[1] = Intraocular pressure at Baseline and Months 1-3, Compound 1 with sham or RBZ, or placebo with RBZ (TABLE 1, FIG. 2); type: in vivo
Method: The difference in IOP was determined relative to a pre-treatment baseline (Base) at months 1, 2, and 3 (M1-M3). Intraocular pressure was determined in the study eye in millimeters of mercury (mmHg).
The difference in IOP was determined relative to a pre-treatment Baseline at Months 1, 2, and 3. Intraocular pressure was determined in the study eye/fellow eye in mmHg.

[2] = tested on: patients with diabetic macular edema; assay: Change in intraocular pressure from baseline, Compound 1 BID at varying doses, 28 Day EOT (FIG. 1); type: in vivo, human; conditions: doses greater than 15 mg BID
Method: The difference in IOP was determined at the end of the trial, which was 28 days after treatment began (28 Day EOT). Changes in IOP were determined both in the study eye and the fellow eye.

Question: For COC(=O)N[C@@H](Cc1ccccc1)C(=O)N[C@@H](Cc1ccc(NS(=O)(=O)O)cc1)c1csc(-c2cccs2)n1 [Compound 1], which “IOP, fellow eye” value ([1]; Month 1) is on record?
Answer: 14.5 mmHg

Question: What about the “IOP, fellow eye” value ([1]; Month 2) of the same compound?
Answer: 14.3 mmHg

Question: And the “IOP, fellow eye” value ([1]; Month 3)?
Answer: 14.0 mmHg

Question: What about the “IOP, fellow eye” value ([1]; pre-treatment Baseline) of the same compound?
Answer: 15.4 mmHg

Question: And the “IOP, study eye” value ([1]; Month 1)?
Answer: 14.8 mmHg

Question: And the “IOP, study eye” value ([1]; Month 2)?
Answer: 14.4 mmHg

Question: What about the “IOP, study eye” value ([1]; Month 3) of the same compound?
Answer: 14.3 mmHg

Question: What about the “IOP, study eye” value ([1]; pre-treatment Baseline) of the same compound?
Answer: 15.8 mmHg

Question: And the “effect on intraocular pressure (IOP) relative to pre-treatment baseline” value [2]?
Answer: decreased IOP
